Consider 26 compounds from ChEMBL document CHEMBL4340516, “Synthesis and antitumor activity of novel steroidal imidazolium salt derivatives” (Eur J Med Chem, 2019).

SMILES strings stand for the structures.

Common to all, as to assay type: functional, cell-based
The subject of experiment [1] is A549. As to the kind of experiment: Antiproliferative activity against human A549 cells assessed as reduction in cell viability incubated for 48 hrs by MTS assay. The following applies: A549, 48 h. In general terms: Tetrazolium dyes change colour on reduction, which living cells bring about.
Experiment [2] deals with SMMC-7721. As to the kind of experiment: Antiproliferative activity against human SMMC7721 cells assessed as reduction in cell viability incubated for 48 hrs by MTS assay. The following applies: SMMC-7721, 48 h.
The test system of experiment [3] is HL-60. As to the kind of experiment: Antiproliferative activity against human HL60 cells assessed as reduction in cell viability incubated for 48 hrs by MTS assay. The following applies: HL-60, 48 h.
The test system of experiment [4] is SW480. Kind of experiment: Antiproliferative activity against human SW480 cells assessed as reduction in cell viability incubated for 48 hrs by MTS assay. As to conditions: SW480, 48 h.
Experiment [5] concerns MCF7. As to the kind of experiment: Antiproliferative activity against human MCF7 cells assessed as reduction in cell viability incubated for 48 hrs by MTS assay. As to conditions: MCF7, 48 h.

As a reminder, the IC50 is the concentration that inhibits the measured activity by half.

On to `CC(C)CCC[C@@H](C)[C@H]1CC[C@H]2[C@@H]3CC=C4C[C@@H](n5cc[n+](CC(=O)c6ccc7ccccc7c6)c5)CC[C@]4(C)[C@H]3CC[C@]12C`, for which the IC50 in experiment [1] was 9.65 µM; in experiment [2], 2.1 µM; in experiment [3] it was 7.26 µM; in experiment [4], 11.3 µM; in experiment [5], over 20 µM.
As to `C[C@@H]1CC[C@@]2(OC1)O[C@H]1C[C@H]3[C@@H]4CC=C5C[C@H](n6c[n+](CC(=O)c7ccccc7)c7ccccc76)CC[C@]5(C)[C@H]4CC[C@]3(C)[C@H]1[C@@H]2C`, the IC50 in experiment [1] was 2.55 µM; in experiment [2], 1.81 µM; in experiment [3], 1.19 µM; in experiment [4] it was 2.59 µM; in experiment [5], 2.49 µM.
For the compound `CC(C)CCC[C@@H](C)[C@H]1CC[C@H]2[C@@H]3CC=C4C[C@@H](O)CC[C@]4(C)[C@H]3CC[C@]12C` [CHOLESTEROL], the IC50 in experiment [1], in experiment [2], in experiment [3], in experiment [4] and in experiment [5] was over 20 µM each time.
Take `C[C@@H]1CC[C@@]2(OC1)O[C@H]1C[C@H]3[C@@H]4CC=C5C[C@H](n6c[n+](CC(=O)c7ccc8ccccc8c7)c7ccccc76)CC[C@]5(C)[C@H]4CC[C@]3(C)[C@H]1[C@@H]2C`: the IC50 stood at 1.32 µM in experiment [1]; 1.33 µM in experiment [2]; 1.1 µM in experiment [3]; 1.75 µM in experiment [4]; 1.67 µM in experiment [5].
For the compound `c1c[nH]cn1` [IMIDAZOLE], the IC50 in experiment [1], in experiment [2], in experiment [3], in experiment [4] and in experiment [5] was over 20 µM throughout.
As to `C[C@@H]1CC[C@@]2(OC1)O[C@H]1C[C@H]3[C@@H]4CC=C5C[C@H](n6c[n+](CC(=O)c7cccc(Br)c7)c7ccccc76)CC[C@]5(C)[C@H]4CC[C@]3(C)[C@H]1[C@@H]2C`, the IC50 in experiment [1] amounted to 1.77 µM; in experiment [2], 1.75 µM; in experiment [3] it was 1.36 µM; in experiment [4] it was 1.74 µM; in experiment [5] it was 1.53 µM.
As to `C[C@]12CC[C@H]3[C@@H](CC=C4C[C@@H](O)CC[C@@]43C)[C@@H]1CC[C@@H]2n1cc[n+](Cc2ccc3ccccc3c2)c1`, the IC50 in experiment [1] came to 7.87 µM; in experiment [2] it was 4.41 µM; in experiment [3] it was 2.68 µM; in experiment [4], 6.47 µM; in experiment [5] it was 5.08 µM.
On the same counts, the results for `CC(C)CCC[C@@H](C)[C@H]1CC[C@H]2[C@@H]3C[C@H](n4cc[n+](Cc5ccccc5Br)c4)[C@]45C[C@H]4CC[C@]5(C)[C@H]3CC[C@]12C` are 7.65 µM, 1.16 µM, 5.53 µM, 10.9 µM and 10.8 µM.
Consider `CC(C)CCC[C@@H](C)[C@H]1CC[C@H]2[C@@H]3C[C@H](n4cc[n+](CC(=O)c5ccccc5)c4)[C@]45C[C@H]4CC[C@]5(C)[C@H]3CC[C@]12C`, for which the IC50 was 7.28 µM in experiment [1]; 1.29 µM in experiment [2]; 1.53 µM in experiment [3]; 6.06 µM in experiment [4]; 6.98 µM in experiment [5].
For `C[C@@H]1CC[C@@]2(OC1)O[C@H]1C[C@H]3[C@@H]4CC=C5C[C@@H](O)CC[C@]5(C)[C@H]4CC[C@]3(C)[C@H]1[C@@H]2C` [DISOGENIN], the IC50 in experiment [1], in experiment [2], in experiment [3], in experiment [4] and in experiment [5] was over 20 µM throughout.
As for `CC(C)CCC[C@@H](C)[C@H]1CC[C@H]2[C@@H]3C[C@H](n4cc[n+](CC(=O)c5cccc(Br)c5)c4)[C@]45C[C@H]4CC[C@]5(C)[C@H]3CC[C@]12C`, the IC50 is 7.84 µM in experiment [1]; 1.22 µM in experiment [2]; 1.42 µM in experiment [3]; 8.23 µM in experiment [4]; 8.7 µM in experiment [5].
Turning to `CC(C)CCC[C@@H](C)[C@H]1CC[C@H]2[C@@H]3CC=C4C[C@H](n5c[n+](CC(=O)c6ccccc6)c6ccccc65)CC[C@]4(C)[C@H]3CC[C@]12C`, the IC50 in experiment [1] worked out at 7.51 µM; in experiment [2] it was 1.65 µM; in experiment [3], 0.88 µM; in experiment [4] it was 10.2 µM; in experiment [5] it was 7.18 µM.
For `CC(C)CCC[C@@H](C)[C@H]1CC[C@H]2[C@@H]3CC=C4C[C@H](n5ccnc5)CC[C@]4(C)[C@H]3CC[C@]12C`, the half-inhibitory concentration (IC50) in experiment [1], in experiment [2], in experiment [3], in experiment [4] and in experiment [5] was over 20 µM each time.
`CC(C)CCC[C@@H](C)[C@H]1CC[C@H]2[C@@H]3CC=C4C[C@@H](n5cc[n+](CC(=O)c6ccccc6)c5)CC[C@]4(C)[C@H]3CC[C@]12C`: the IC50 stood at 8.1 µM in experiment [1]; 1.42 µM in experiment [2]; 7.73 µM in experiment [3]; 6.56 µM in experiment [4]; 8.84 µM in experiment [5].
Turning to `C[C@@H]1CC[C@@]2(OC1)O[C@H]1C[C@H]3[C@@H]4C[C@H](n5cc[n+](CC(=O)c6ccc7ccccc7c6)c5)[C@]56C[C@H]5CC[C@]6(C)[C@H]4CC[C@]3(C)[C@H]1[C@@H]2C`, the IC50 was 7.27 µM in experiment [1]; 3.46 µM in experiment [2]; 1.03 µM in experiment [3]; 4.01 µM in experiment [4]; 2.26 µM in experiment [5].
On the same counts, the results for `C[C@@H]1CC[C@@]2(OC1)O[C@H]1C[C@H]3[C@@H]4CC=C5C[C@@H](n6cc[n+](Cc7ccccc7Br)c6)CC[C@]5(C)[C@H]4CC[C@]3(C)[C@H]1[C@@H]2C` are 2.99 µM, 2.27 µM, 0.92 µM, 5.37 µM and 1.88 µM.
On the same counts, the results for `C[C@@H]1CC[C@@]2(OC1)O[C@H]1C[C@H]3[C@@H]4C[C@H](n5cc[n+](Cc6ccc7ccccc7c6)c5)[C@]56C[C@H]5CC[C@]6(C)[C@H]4CC[C@]3(C)[C@H]1[C@@H]2C` are 4.92 µM, 2.45 µM, 1.22 µM, 4.03 µM and 1.95 µM.
With `COc1ccc(C(=O)C[n+]2ccn([C@@H]3CC[C@@]4(C)C(=CC[C@H]5[C@@H]6C[C@@H]7O[C@]8(CC[C@@H](C)CO8)[C@@H](C)[C@@H]7[C@@]6(C)CC[C@@H]54)C3)c2)cc1`, the half-maximal inhibitory concentration (IC50) is 1.94 µM in experiment [1]; 1.51 µM in experiment [2]; 1.25 µM in experiment [3]; 2.59 µM in experiment [4]; 1.47 µM in experiment [5].
As for `COc1ccc(C(=O)C[n+]2cn([C@@H]3CC[C@@]4(C)C(=CC[C@H]5[C@@H]6C[C@@H]7O[C@]8(CC[C@@H](C)CO8)[C@@H](C)[C@@H]7[C@@]6(C)CC[C@@H]54)C3)c3cc(C)c(C)cc32)cc1`, the IC50 was determined as 5.02 µM in experiment [1]; 0.44 µM in experiment [2]; 0.74 µM in experiment [3]; 2.01 µM in experiment [4]; 2.31 µM in experiment [5].
For `C[C@@H]1CC[C@@]2(OC1)O[C@H]1C[C@H]3[C@@H]4CC=C5C[C@@H](n6ccnc6)CC[C@]5(C)[C@H]4CC[C@]3(C)[C@H]1[C@@H]2C`, in that order: 9.92 µM, 9.74 µM, 9.51 µM, over 20 µM and 14.5 µM.
On the same counts, the results for `C[C@]12CC[C@H]3[C@@H](CC=C4C[C@@H](O)CC[C@@]43C)[C@@H]1CC[C@@H]2n1cc[n+](CC(=O)c2ccc3ccccc3c2)c1` are 9.69 µM, 3.5 µM, 2 µM, 5.59 µM and 4.38 µM.
On the same counts, the results for `Cc1cc2c(cc1C)[n+](CC(=O)c1cccc(Br)c1)cn2[C@@H]1CC[C@@]2(C)C(=CC[C@H]3[C@@H]4C[C@@H]5O[C@]6(CC[C@@H](C)CO6)[C@@H](C)[C@@H]5[C@@]4(C)CC[C@@H]32)C1` are 7.15 µM, 1.39 µM, 0.98 µM, 2.22 µM and 2.78 µM.
As for `Cc1cc2nc[nH]c2cc1C` [DIMEDAZOL], the concentration for half-maximal inhibition (IC50) in experiment [1], in experiment [2], in experiment [3], in experiment [4] and in experiment [5] was over 20 µM in each case.
Turning to `CC(C)CCC[C@@H](C)[C@H]1CC[C@H]2[C@@H]3CC=C4C[C@H](n5cc[n+](Cc6ccccc6Br)c5)CC[C@]4(C)[C@H]3CC[C@]12C`, the IC50 in experiment [1] came out at 7.36 µM; in experiment [2], 0.94 µM; in experiment [3], 1.59 µM; in experiment [4], 8.32 µM; in experiment [5], 6.02 µM.
As to `COc1ccc(C(=O)C[n+]2cn([C@@H]3CC[C@@]4(C)C(=CC[C@H]5[C@@H]6CC[C@H]([C@H](C)CCCC(C)C)[C@@]6(C)CC[C@@H]54)C3)c3ccccc32)cc1`, the IC50 came out at 7.66 µM in experiment [1]; 1.45 µM in experiment [2]; 4.41 µM in experiment [3]; 10.1 µM in experiment [4]; 9.85 µM in experiment [5].
For `C[C@@H]1CC[C@@]2(OC1)O[C@H]1C[C@H]3[C@@H]4C[C@H](n5cc[n+](CC(=O)c6ccccc6)c5)[C@]56C[C@H]5CC[C@]6(C)[C@H]4CC[C@]3(C)[C@H]1[C@@H]2C`, in that order: 7.76 µM, 7.38 µM, 2.69 µM, 7.39 µM and 5.5 µM.
